These results are taken from patent publication US9988390B2, “Pyrimidone derivatives and their use in the treatment, amelioration or prevention of a viral disease” (F. Hoffmann-La Roche AG, priority 2015, dated 2018).

Each structure is given as a SMILES string.

This assay concerns influenza A virus (A/WSN/33 NanoLuc reporter virus) in A549 cells. Put plainly: microbe, parasite or virus in culture. Type of assay: cell-based. To be noted: A549, 24 h, read-out: IC50 values of viral replication inhibition in a cell-based Luciferase Reporter Assay (LRA).
Consider `CC(C)N1C[C@H](C2c3ccccc3CCc3ccccc32)n2c([S+](C)[O-])nc(=O)c(O)c2C1=O` (stereo partly drawn) [Ia-31, (4S)-4-(6,11-Dihydro-5H-dibenzo[2,1-b:1′,2′-e][7]annulen-11-yl)-9-hydroxy-2-isopropyl-6-methylsulfinyl-3,4-dihydropyrazino[1,2-c]pyrimidine-1,8-dione], for which the IC50 came out at 15 nM.
The figure for `CC(C)N1CC(C2c3ccccc3CCc3ccccc32)n2c(S)nc(=O)c(O)c2C1=O` (stereo not drawn) [Ia-75, 4-(6,11-Dihydro-5H-dibenzo[2,1-b:1′,2′-e][7]annulen-11-yl)-9-hydroxy-2-isopropyl-6-sulfanyl-3,4-dihydropyrazino[1,2-c]pyrimidine-1,8-dione] is 45 nM.
As for `CC(C)N1C[C@H](C(c2ccccc2)c2ccccc2)n2c(NCc3ccccc3)nc(=O)c(O)c2C1=O` [Example 1a-1, (4S)-4-Benzhydryl-6-(benzylamino)-9-hydroxy-2-isopropyl-3,4-dihydropyrazino[1,2-c]pyrimidine-1,8-dione], the IC50 amounted to 153 nM.
Then `CC(C)N1C[C@H](C2c3ccccc3CCc3ccccc32)n2cnc(=O)c(O)c2C1=O` [Ia-29, (4S)-4-(6,11-Dihydro-5H-dibenzo[2,1-b:1′,2′-e][7]annulen-11-yl)-9-hydroxy-2-isopropyl-3,4-dihydropyrazino[1,2-c]pyrimidine-1,8-dione], with 22 nM; and `CC(C)N1C[C@H](C(c2ccccc2)c2ccccc2)n2c(-c3nnn[nH]3)nc(=O)c(O)c2C1=O` [Ia-53, (4S)-4-Benzhydryl-9-hydroxy-2-isopropyl-6-(1H-tetrazol-5-yl)-3,4-dihydropyrazino[1,2-c]pyrimidine-1,8-dione], with 20200 nM; and `CC(=O)Nc1nc(=O)c(O)c2n1[C@@H](C(c1ccccc1)c1ccccc1)CN(C(C)C)C2=O` [Example 1a-16, N-[(4S)-4-Benzhydryl-9-hydroxy-2-isopropyl-1,8-dioxo-3,4-dihydropyrazino[1,2-c]pyrimidin-6-yl]acetamide], with 23 nM.
